The text below walks through data of US6407126B1 (priority 1997, dated 2002).

Where two headings read alike, the source gives them in different places.

This test relates to Phytophthora infestans. It is filed as in vivo. To be noted: tomato leaves, infected next day, evaluated after 6 days.
Setting [1] is: 50 ppm active ingredient in the spray liquor.
[2] abbreviates: 100 ppm active ingredient in the spray liquor.

As to `CC1(c2ccc(Oc3ccccc3)cc2)OC(=O)N(Nc2ccccc2)C1=O` (stereo not drawn) [Compound VI], the “Efficacy in % of the untreated control” value is recorded as 70% (25 ppm active ingredient in the spray liquor), 70% under setting [1] and 80% under setting [2].

Consider “manganese ethylenebis(dithiocarbamate) (zinc complex) [Compound IIa]”, for which the “Efficacy in % of the untreated control” value (12.5 ppm active ingredient in the spray liquor) turned out to be 70%.

Consider `O=C(Nc1ccccc1-c1ccc(F)cc1)c1cccnc1Cl` [Compound I.1], for which the “Efficacy in % of the untreated control” value by setting is: under setting [1], 0%; under setting [2], 0%.
